Test results taken from patent publication US20250051319A1 (AUGUSTINE THERAPEUTICS, priority 2021, published 2025).

Key:
[1] = molecular target: human full-length recombinant HDAC6 (Homo sapiens (Human), UniProt Q9UBN7); experiment: HDAC6 enzymatic activity assay (alternative protocol, Ac-Gly-Ala-Lys(Ac)-AMC); assay type: biochemical; conditions: 5 nM enzyme, read-out: HDAC6 biochem
Description: (§1) Inhibition of HDAC enzymes was performed in 384-well plate format using human full-length recombinant HDAC1 and HDAC6, isolated from a baculovirus expression system in Sf9 cells (BPS Bioscience). Reaction buffer for HDAC1 contained 50 mM Tris HCl pH 8.0, 137 mM NaCl, 2.7 mM KCl, 1 mM MgCl2, 0.1 mg/mL BSA, and reaction buffer for HDAC6 contained 50 mM Tris/HCl, pH 8.0, 137 mM NaCl, 2.7 mM KCl, 250 μM EDTA, 1 mM DTT, 0.1 mg/mL BSA. Compounds (dissolved in 100% DMSO) or DMSO (vehicle) were diluted in assay buffer at 3× final assay concentration and then added to assay plates. SAHA ([…]) was used as a positive control. 3× final assay concentration of recombinant enzymes (final assay concentration is 4 nM and 5 nM for HDAC1 and HDAC6, respectively) were preincubated for 10 minutes with test compounds at room temperature. Afterwards, 3× final assay concentration of an acetylated fluorogenic peptide (Ac-Gly-Ala-Lys(Ac))-AMC, Bachem; final assay concentration is 12 µM and 40 µM for HDAC1 and HDAC6, respectively) was added to assay plate, allowing deacetylase reactions to incubate for 60 minutes at room temperature. The developer reagent containing 5 μM SAHA and 50 μM trypsin was added to stop the deacetylase reaction and generate AMNC-fluorescence. 15 minutes after addition of developer reagent, endpoint measurements were taken using CLARIOstar (BMG Labtech) plate reader (excitation/emission: 360/450). Fluorescence signals were normalized for each plate using GraphPad Prism software: reaction HDAC-substrate in presence of DMSO was set to 100% while reaction HDAC-substrate in presence of 10 μM SAHA was set to 0%.

[2] = molecular target: human full-length recombinant HDAC1 (Homo sapiens (Human), UniProt Q13547); experiment: HDAC1 enzymatic activity assay (alternative protocol, Ac-Gly-Ala-Lys(Ac)-AMC); assay type: biochemical; conditions: 4 nM enzyme, read-out: HDAC1 biochem
Chain of human full-length recombinant HDAC1 (Q13547 whole entry): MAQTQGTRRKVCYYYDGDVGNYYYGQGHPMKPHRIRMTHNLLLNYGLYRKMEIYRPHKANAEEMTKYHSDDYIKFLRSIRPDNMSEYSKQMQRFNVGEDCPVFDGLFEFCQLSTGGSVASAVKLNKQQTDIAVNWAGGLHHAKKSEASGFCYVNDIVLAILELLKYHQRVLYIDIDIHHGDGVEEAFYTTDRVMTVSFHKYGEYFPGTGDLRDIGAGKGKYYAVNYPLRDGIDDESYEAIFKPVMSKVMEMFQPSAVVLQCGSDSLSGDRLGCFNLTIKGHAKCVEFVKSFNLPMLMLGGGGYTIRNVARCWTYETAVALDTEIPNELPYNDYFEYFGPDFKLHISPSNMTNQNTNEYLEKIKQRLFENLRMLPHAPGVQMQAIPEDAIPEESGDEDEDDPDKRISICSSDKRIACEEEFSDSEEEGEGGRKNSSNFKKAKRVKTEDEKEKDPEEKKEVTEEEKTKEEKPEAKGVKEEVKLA
Description: as §1

[3] = molecular target: catalytic domain 2 (CD2) of HDAC6 (Homo sapiens (Human), UniProt Q9UBN7); experiment: Cellular target engagement assay - NanoBRET; assay type: cell-based; conditions: NanoLuc-HDAC6(CD2) in HEK293T cells, 2 hours, read-out: IC50 (HDAC6(CD2) interaction)
Chain of catalytic domain 2 (CD2) of HDAC6 (Q9UBN7 482-800): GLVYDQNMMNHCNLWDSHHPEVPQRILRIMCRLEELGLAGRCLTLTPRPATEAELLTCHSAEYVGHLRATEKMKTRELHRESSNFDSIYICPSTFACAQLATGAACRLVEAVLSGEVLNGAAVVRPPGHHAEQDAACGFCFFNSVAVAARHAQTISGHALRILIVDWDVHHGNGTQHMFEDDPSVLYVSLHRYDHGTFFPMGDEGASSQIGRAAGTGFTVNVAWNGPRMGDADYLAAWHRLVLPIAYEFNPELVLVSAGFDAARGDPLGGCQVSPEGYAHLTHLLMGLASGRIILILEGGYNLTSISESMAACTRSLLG

Chain of human full-length recombinant HDAC6 (Q9UBN7 whole entry): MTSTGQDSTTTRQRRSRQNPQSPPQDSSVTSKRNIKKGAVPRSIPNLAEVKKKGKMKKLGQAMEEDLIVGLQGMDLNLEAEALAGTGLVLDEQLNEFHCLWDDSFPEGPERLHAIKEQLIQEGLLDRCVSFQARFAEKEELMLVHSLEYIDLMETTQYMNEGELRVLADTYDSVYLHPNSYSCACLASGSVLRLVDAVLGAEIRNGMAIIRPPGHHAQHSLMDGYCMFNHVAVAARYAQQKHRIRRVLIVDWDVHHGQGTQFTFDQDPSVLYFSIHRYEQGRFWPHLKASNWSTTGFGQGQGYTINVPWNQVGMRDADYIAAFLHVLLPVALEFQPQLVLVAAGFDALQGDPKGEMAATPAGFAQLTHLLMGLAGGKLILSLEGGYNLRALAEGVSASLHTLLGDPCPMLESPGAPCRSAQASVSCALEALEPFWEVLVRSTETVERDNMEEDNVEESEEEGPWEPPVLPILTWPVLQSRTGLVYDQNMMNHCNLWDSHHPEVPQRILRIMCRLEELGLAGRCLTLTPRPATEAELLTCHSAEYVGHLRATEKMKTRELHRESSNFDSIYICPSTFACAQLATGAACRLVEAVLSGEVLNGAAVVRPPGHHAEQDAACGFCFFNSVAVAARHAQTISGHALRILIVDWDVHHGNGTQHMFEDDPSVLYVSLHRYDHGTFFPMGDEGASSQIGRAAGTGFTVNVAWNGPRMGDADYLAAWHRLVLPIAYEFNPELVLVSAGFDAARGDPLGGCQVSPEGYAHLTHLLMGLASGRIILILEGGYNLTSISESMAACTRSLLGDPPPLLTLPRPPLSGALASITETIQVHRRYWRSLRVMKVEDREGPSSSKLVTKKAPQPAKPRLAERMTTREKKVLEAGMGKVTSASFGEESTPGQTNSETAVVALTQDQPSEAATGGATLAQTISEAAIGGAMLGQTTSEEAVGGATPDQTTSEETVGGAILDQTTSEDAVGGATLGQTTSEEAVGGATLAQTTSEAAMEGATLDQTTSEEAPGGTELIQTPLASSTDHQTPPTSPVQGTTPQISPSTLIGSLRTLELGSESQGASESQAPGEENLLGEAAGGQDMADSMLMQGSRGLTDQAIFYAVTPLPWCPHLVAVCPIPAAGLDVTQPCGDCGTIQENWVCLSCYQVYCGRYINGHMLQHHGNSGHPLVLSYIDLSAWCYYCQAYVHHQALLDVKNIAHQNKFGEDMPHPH

| SMILES | IC50 [1] | IC50 [2] | IC50 [3] |
| --- | --- | --- | --- |
| Cc1nc(SCC(=O)c2ccc(CNS(=O)(=O)CC3CC3)s2)c2ccccc2n1 [Compound 93, 1-cyclopropyl-N-((5-(2-((2-methylquinazolin-4-yl)thio)acetyl)thiophen-2-yl)methyl)methanesulfonamide] | ≤ 100 nM | > 10000 nM | 100 to 500 nM |
| Cc1nc(SCC(=O)c2ccc(CCNS(C)(=O)=O)s2)c2ccccc2n1 [Compound 94, N-(2-(5-(2-((2-methylquinazolin-4-yl)thio)acetyl)thiophen-2-yl)ethyl)methanesulfonamide] | ≤ 100 nM | > 10000 nM | 100 to 500 nM |
| CS(=O)(=O)N1CCC(c2ccc(C(=O)CSc3nc(C(F)(F)F)nc4ccccc34)s2)C1 (stereo not drawn) [Compound 95, 1-(5-(1-(methylsulfonyl)163yrrolidine-3-yl)thiophen-2-yl)-2-((2-(trifluoromethyl)quinazolin-4-yl)thio)ethanone] | ≤ 100 nM | > 10000 nM | 100 to 500 nM |
| Cc1nc(SCC(=O)c2ccc(CNS(C)(=O)=O)s2)c2ccccc2n1 [Compound 97, N-((5-(2-((2-methylquinazolin-4-yl)thio)acetyl)thiophen-2-yl)methyl)methanesulfonamide] | ≤ 100 nM | 1000 to 10000 nM | 100 to 500 nM |
| CS(=O)(=O)NCCc1ccc(C(=O)CSc2nc(C(F)(F)F)nc3ccccc23)s1 [Compound 98, N-(2-(5-(2-((2-(trifluoromethyl)quinazolin-4-yl)thio)acetyl)thiophen-2-yl)ethyl)methanesulfonamide] | ≤ 100 nM | > 10000 nM | ≤ 100 nM |
| CC(C)c1nc(SCC(=O)c2ccc(CNC(=O)C(C)(C)C)s2)c2ccccc2n1 [Example 1, N-((5-(2-((2-isopropylquinazolin-4-yl)thio)acetyl)thiophen-2-yl)methyl)pivalamide] | ≤ 100 nM | > 10000 nM | 100 to 500 nM |
| CC(C)(C)C(=O)NCc1ccc(C(=O)CSc2nc(C3CC3)nc3ccccc23)s1 [Example 2, N-((5-(2-((2-cyclopropylquinazolin-4-yl)thio)acetyl)thiophen-2-yl)methyl)pivalamide] | ≤ 100 nM | > 10000 nM | 100 to 500 nM |
| Cc1nc(SCC(=O)c2ccc(CNC(=O)C(C)(C)C)s2)c2ccccc2n1 [Example 3, N-((5-(2-((2-methylquinazolin-4-yl)thio)acetyl)thiophen-2-yl)methyl)pivalamide] | ≤ 100 nM | 1000 to 10000 nM | ≤ 100 nM |
| COCc1nc(SCC(=O)c2ccc(CNC(=O)C(C)(C)C)s2)c2ccccc2n1 [Example 4, N-((5-(2-((2-(methoxymethyl)quinazolin-4-yl)thio)acetyl)thiophen-2-yl)methyl)pivalamide] | ≤ 100 nM | > 10000 nM | 500 to 1000 nM |
| Cc1nc(SCC(=O)c2ccc(CNC(=O)C(C)(C)C)s2)c2cnn(C)c2n1 [Example 5, N-((5-(2-((1,6-dimethyl-1H-pyrazolo[3,4-d]pyrimidin-4-yl)thio)acetyl)thiophen-2-yl)methyl)pivalamide] | ≤ 100 nM | > 10000 nM | 500 to 1000 nM |
| Cn1ncc2c(SCC(=O)c3ccc(CNC(=O)C(C)(C)C)s3)nc(C3CC3)nc21 [Example 6, N-((5-(2-((6-cyclopropyl-1-methyl-1H-pyrazolo[3,4-d]pyrimidin-4-yl)thio)acetyl)thiophen-2-yl)methyl)pivalamide] | ≤ 100 nM | > 10000 nM | 100 to 500 nM |
| Cc1nc(SCC(=O)c2ccc(CNC(=O)C(C)(C)C)s2)c2cccnc2n1 [Example 7, N-((5-(2-((2-methylpyrido[2,3-d]pyrimidin-4-yl)thio)acetyl)thiophen-2-yl)methyl)pivalamide] | ≤ 100 nM | 1000 to 10000 nM | ≤ 100 nM |
| Cc1nc(SCC(=O)c2ccc(CNC(=O)C(C)(C)C)s2)c2ccc(Cl)cc2n1 [Example 8, N-((5-(2-((7-chloro-2-methylquinazolin-4-yl)thio)acetyl)thiophen-2-yl)methyl)pivalamide] | ≤ 100 nM | > 10000 nM | 100 to 500 nM |
| Cc1nc(SCC(=O)c2ccc(CNC(=O)C(C)(C)C)s2)c2cc(F)ccc2n1 [Example 9, N-((5-(2-((6-fluoro-2-methylquinazolin-4-yl)thio)acetyl)thiophen-2-yl)methyl)pivalamide] | ≤ 100 nM | > 10000 nM | 100 to 500 nM |
| Cc1nc(SCC(=O)c2ccc(CNC(=O)C(C)(C)C)s2)c2ccc(F)cc2n1 [Example 10, N-((5-(2-((7-fluoro-2-methylquinazolin-4-yl)thio)acetyl)thiophen-2-yl)methyl)pivalamide] | ≤ 100 nM | > 10000 nM | 100 to 500 nM |
| Cc1ccc2c(SCC(=O)c3ccc(CNC(=O)C(C)(C)C)s3)nc(C)nc2c1 [Example 11, N-((5-(2-((2,7-dimethylquinazolin-4-yl)thio)acetyl)thiophen-2-yl)methyl)pivalamide] | ≤ 100 nM | > 10000 nM | 100 to 500 nM |
| COc1ccc2c(SCC(=O)c3ccc(CNC(=O)C(C)(C)C)s3)nc(C)nc2c1 [Example 12, N-((5-(2-((7-methoxy-2-methylquinazolin-4-yl)thio)acetyl)thiophen-2-yl)methyl)pivalamide] | ≤ 100 nM | > 10000 nM | 100 to 500 nM |
| Cc1nc(SCC(=O)c2ccc(CNC(=O)C(C)(C)C)s2)c2cccc(F)c2n1 [Example 15, N-((5-(2-((8-fluoro-2-methylquinazolin-4-yl)thio)acetyl)thiophen-2-yl)methyl)pivalamide] | ≤ 100 nM | > 10000 nM | 100 to 500 nM |

Second part, the molecule after the results:

| IC50 [1] | IC50 [2] | IC50 [3] | SMILES |
| --- | --- | --- | --- |
| ≤ 100 nM | > 10000 nM | 500 to 1000 nM | Cn1ncc2c(SCC(=O)c3ccc(CNC(=O)Cc4ccccn4)s3)ncnc21 [Compound 55, N-((5-(2-((1-methyl-1H-pyrazolo[3,4-d]pyrimidin-4-yl)thio)acetyl)thiophen-2-yl)methyl)-2-(160yrrolid-2-yl)acetamide] |
| ≤ 100 nM | > 10000 nM | ≤ 100 nM | Cn1ncc2c(SCC(=O)c3ccc(CNC(=O)Cc4cccnc4)s3)ncnc21 [Compound 56, N-((5-(2-((1-methyl-1H-pyrazolo[3,4-d]pyrimidin-4-yl)thio)acetyl)thiophen-2-yl)methyl)-2-(160yrrolid-3-yl)acetamide] |
| ≤ 100 nM | > 10000 nM | 100 to 500 nM | Cn1ncc2c(SCC(=O)c3ccc(CNC(=O)Cc4ccncc4)s3)ncnc21 [Compound 57, N-((5-(2-((1-methyl-1H-pyrazolo[3,4-d]pyrimidin-4-yl)thio)acetyl)thiophen-2-yl)methyl)-2-(160yrrolid-4-yl)acetamide] |
| ≤ 100 nM | > 10000 nM | 1000 to 10000 nM | COCC(=O)NCc1ccc(C(=O)CSc2ncnc3c2cnn3C)s1 [Compound 58, 2-methoxy-N-((5-(2-((1-methyl-1H-pyrazolo[3,4-d]pyrimidin-4-yl)thio)acetyl)thiophen-2-yl)methyl)acetamide] |
| ≤ 100 nM | > 10000 nM | 100 to 500 nM | Cn1ncc2c(SCC(=O)c3ccc(CNC(=O)CO)s3)ncnc21 [Compound 59, 2-hydroxy-N-((5-(2-((1-methyl-1H-pyrazolo[3,4-d]pyrimidin-4-yl)thio)acetyl)thiophen-2-yl)methyl)acetamide] |
| ≤ 100 nM | > 10000 nM | 100 to 500 nM | Cn1ncc2c(SCC(=O)c3ccc(CNS(C)(=O)=O)s3)ncnc21 [Compound 87] |
| ≤ 100 nM | > 10000 nM | 1000 to 10000 nM | Cn1ncc2c(SCC(=O)c3ccc(CNS(=O)(=O)Cc4ccccc4)s3)ncnc21 [Compound 90, N-((5-(2-((1-methyl-1H-pyrazolo[3,4-d]pyrimidin-4-yl)thio)acetyl)thiophen-2-yl)methyl)-1-phenylmethanesulfonamide] |
| ≤ 100 nM | > 10000 nM | 100 to 500 nM | CN(Cc1ccc(C(=O)CSc2ncnc3c2cnn3C)s1)S(=O)(=O)C1CC1 [Compound 91, N-methyl-N-((5-(2-((1-methyl-1H-pyrazolo[3,4-d]pyrimidin-4-yl)thio)acetyl)thiophen-2-yl)methyl)cyclopropanesulfonamide] |
| ≤ 100 nM | 1000 to 10000 nM | 100 to 500 nM | CN(Cc1ccc(C(=O)CSc2ncnc3c2cnn3C)s1)S(=O)(=O)Cc1ccncc1 [Compound 92, N-methyl-N-((5-(2-((1-methyl-1H-pyrazolo[3,4-d]pyrimidin-4-yl)thio)acetyl)thiophen-2-yl)methyl)-1-(162yrrolid-4-yl)methanesulfonamide] |
